Test results taken from the supplement of paper PMC10307832.

Columns and labels:
Assay in all cases: relative viability (nuclei count vs DMSO), 5 days (fraction); higher = more cells survive
OSI-027 + AZD7762 = compound: COc1cccc2cc(-c3nc([C@H]4CC[C@H](C(=O)O)CC4)n4ncnc(N)c34)[nH]c12 [OSI-027] + NC(=O)Nc1cc(-c2cccc(F)c2)sc1C(=O)N[C@H]1CCCNC1 [AZD7762] (partner 0.2 µM)
Outline: (§1)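 Lung cancer cell lines were pin-tool dosed in 1536-well plates on the day after seeding, with either a lone drug or a fixed anchor-drug dose plus five library-drug doses (not always all listed) in √10 steps. Nuclei were counted on 4× images after 5 days. Relative viability is the ratio of treated-well to vehicle-well nuclei counts, with each value a median of duplicate plates.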

Vemurafenib + Pemetrexed = compound: CCCS(=O)(=O)Nc1ccc(F)c(C(=O)c2c[nH]c3ncc(-c4ccc(Cl)cc4)cc23)c1F [Vemurafenib] + Nc1nc2[nH]cc(CCc3ccc(C(=O)N[C@@H](CCC(=O)O)C(=O)O)cc3)c2c(=O)[nH]1 [Pemetrexed] (partner 0.2 µM)
Outline: as §1

Vemurafenib + Olaparib = compound: CCCS(=O)(=O)Nc1ccc(F)c(C(=O)c2c[nH]c3ncc(-c4ccc(Cl)cc4)cc23)c1F [Vemurafenib] + O=C(c1cc(Cc2n[nH]c(=O)c3ccccc23)ccc1F)N1CCN(C(=O)C2CC2)CC1 [Olaparib] (partner 8 µM)
Outline: as §1

Alpelisib + OSI-027 = compound: Cc1nc(NC(=O)N2CCC[C@H]2C(N)=O)sc1-c1ccnc(C(C)(C)C(F)(F)F)c1 [Alpelisib] + COc1cccc2cc(-c3nc([C@H]4CC[C@H](C(=O)O)CC4)n4ncnc(N)c34)[nH]c12 [OSI-027] (partner 0.5 µM)
Outline: as §1

Row | Cell Line | relative viability (OSI-027 + AZD7762; first compound 0.01 µM) | relative viability (OSI-027 + AZD7762; first compound 0.03162 µM) | relative viability (OSI-027 + AZD7762; first compound 0.1 µM) | relative viability (OSI-027 + AZD7762; first compound 0.3162 µM) | relative viability (OSI-027 + AZD7762; first compound 1 µM) | relative viability (Vemurafenib + Pemetrexed; first compound 0.03162 µM) | relative viability (Vemurafenib + Pemetrexed; first compound 0.1 µM) | relative viability (Vemurafenib + Pemetrexed; first compound 0.3162 µM) | relative viability (Vemurafenib + Pemetrexed; first compound 1 µM) | relative viability (Vemurafenib + Olaparib; first compound 0.03162 µM) | relative viability (Vemurafenib + Olaparib; first compound 0.1 µM) | relative viability (Vemurafenib + Olaparib; first compound 0.3162 µM) | relative viability (Vemurafenib + Olaparib; first compound 1 µM) | relative viability (Alpelisib + OSI-027; first compound 0.04 µM) | relative viability (Alpelisib + OSI-027; first compound 0.1265 µM) | relative viability (Alpelisib + OSI-027; first compound 0.4 µM) | relative viability (Alpelisib + OSI-027; first compound 1.265 µM) | relative viability (Alpelisib + OSI-027; first compound 4 µM)
1 | HOP-62 | 0.611 | 0.47 | 0.33 | 0.587 | 0.284 | 0.368 | 0.318 | 0.208 | 0.354 | 0.38 | 0.388 | 0.412 | 0.438 | 0.822 | 0.793 | 0.949 | 0.626 | 0.589
2 | IA-LM | – | – | – | – | – | – | – | – | – | 0.67 | 0.818 | 0.78 | 0.721 | – | – | – | – | –
3 | LC-2-ad | 0.835 | 0.77 | 0.879 | 0.894 | 0.615 | 0.252 | 0.254 | 0.249 | 0.276 | 0.691 | 0.645 | 0.763 | 0.69 | 0.783 | 0.692 | 0.712 | 0.478 | 0.416
4 | LCLC-97TM1 | 0.245 | 0.301 | 0.371 | 0.276 | 0.18 | – | 0.163 | 0.185 | 0.149 | – | 0.416 | 0.353 | 0.269 | 0.434 | 0.391 | 0.243 | 0.181 | 0.1
5 | LCLC-103H | 0.8 | 0.717 | 0.748 | 0.64 | 0.542 | 0.495 | 0.515 | 0.377 | 0.456 | 0.644 | 0.71 | 0.742 | 0.797 | 0.486 | 0.439 | 0.435 | 0.372 | 0.335
6 | LK-2 | 0.538 | – | 0.277 | 0.16 | 0.112 | 0.247 | 0.274 | 0.26 | 0.304 | 0.618 | 0.633 | 0.644 | 0.417 | 0.215 | 0.208 | 0.16 | 0.142 | 0.158
7 | LOU-NH91 | 0.762 | 0.702 | 0.667 | 0.597 | 0.482 | 0.372 | 0.464 | 0.337 | 0.382 | 0.876 | 0.671 | 0.743 | 0.894 | 0.754 | 0.601 | 0.638 | 0.543 | 0.49
8 | LU99A | 0.462 | 0.321 | 0.28 | 0.133 | 0.171 | 0.229 | 0.196 | – | 0.199 | 0.245 | 0.259 | – | 0.264 | 0.306 | 0.3 | 0.296 | 0.234 | 0.224
9 | LXF-289 | 1.06 | 1.02 | 1.23 | 1.15 | 0.959 | 0.871 | 0.868 | 0.903 | 0.635 | 1.02 | 1.06 | 1.09 | 1 | 0.725 | 0.626 | 0.685 | 0.567 | 0.427
10 | NCI-H23 | 0.231 | 0.259 | 0.26 | 0.253 | 0.215 | 0.564 | 0.772 | 0.622 | 0.727 | 0.309 | 0.326 | 0.295 | 0.343 | 0.672 | 0.485 | 0.521 | 0.363 | 0.314
11 | NCI-H520 | – | – | – | – | – | 0.689 | 0.643 | 0.532 | 0.608 | 0.284 | 0.337 | 0.364 | 0.359 | 0.21 | 0.239 | 0.229 | 0.188 | 0.189
12 | NCI-H661 | – | – | – | – | – | 1.01 | 0.929 | 0.978 | 0.929 | 0.686 | 0.752 | 0.769 | 0.709 | 0.628 | 0.668 | 0.709 | 0.523 | 0.493
13 | NCI-H727 | 0.557 | 0.568 | 0.41 | 0.576 | 0.546 | – | – | – | – | 0.748 | 0.774 | 0.726 | 0.51 | 0.753 | 0.397 | 0.522 | 0.359 | 0.391
14 | NCI-H1299 | – | – | – | – | – | – | – | – | – | 0.906 | 0.954 | 0.863 | 0.792 | – | – | – | – | –
15 | NCI-H1563 | – | – | – | – | – | 0.708 | 0.627 | 0.681 | 0.65 | – | – | – | – | 0.743 | 0.774 | 0.7 | 0.584 | 0.541
16 | NCI-H1623 | – | – | – | – | – | – | – | – | – | – | – | – | – | 0.494 | 0.338 | 0.383 | 0.34 | 0.28
17 | NCI-H1650 | – | – | – | – | – | 0.343 | 0.316 | 0.343 | 0.351 | 0.677 | 0.626 | 0.844 | 0.791 | 0.637 | 0.561 | 0.529 | 0.433 | 0.374
18 | NCI-H1703 | – | 0.0974 | – | 0.127 | 0.119 | – | – | – | – | 0.432 | 0.307 | 0.454 | 0.515 | – | – | – | – | –
19 | NCI-H2009 | – | – | – | – | – | 1.13 | 0.897 | 0.869 | 0.915 | 0.61 | 0.661 | 0.612 | 0.652 | 0.602 | 0.574 | 0.655 | 0.428 | 0.429
20 | NCI-H2023 | – | – | – | – | – | 0.229 | 0.2 | 0.207 | 0.278 | 0.463 | 0.42 | 0.483 | 0.479 | 0.357 | 0.33 | 0.311 | 0.192 | 0.156
21 | NCI-H2228 | – | – | – | – | – | 0.315 | 0.321 | 0.391 | 0.323 | 0.639 | 0.87 | 0.611 | 0.6 | 0.612 | 0.53 | 0.385 | 0.239 | 0.152
22 | SK-LU-1 | – | – | – | – | – | 0.928 | 0.891 | 0.861 | 0.974 | 0.368 | 0.418 | 0.393 | 0.392 | 0.378 | 0.297 | 0.29 | 0.219 | 0.201
23 | SK-MES-1 | – | – | – | – | – | 0.891 | – | 0.858 | 0.92 | 0.623 | 0.576 | 0.777 | 0.688 | 0.57 | 0.541 | 0.553 | 0.442 | 0.351
24 | SW 1573 | – | – | – | – | – | 0.872 | 0.777 | 0.798 | 0.832 | 0.435 | 0.414 | 0.577 | 0.531 | 0.661 | 0.438 | 0.571 | 0.404 | 0.337
